The values below come from patent publication US9365522B2, “Pyrazole amide derivative” (AMGEN INC., priority 2015, dated 2016).

The structures appear in SMILES notation.

For this assay, the target named is T1, human RORγ-LBD (Homo sapiens, UniProt P51449).
T1 construct: made in house; host or cells: E. coli (BL-21)
T1 sequence (P51449 262-518): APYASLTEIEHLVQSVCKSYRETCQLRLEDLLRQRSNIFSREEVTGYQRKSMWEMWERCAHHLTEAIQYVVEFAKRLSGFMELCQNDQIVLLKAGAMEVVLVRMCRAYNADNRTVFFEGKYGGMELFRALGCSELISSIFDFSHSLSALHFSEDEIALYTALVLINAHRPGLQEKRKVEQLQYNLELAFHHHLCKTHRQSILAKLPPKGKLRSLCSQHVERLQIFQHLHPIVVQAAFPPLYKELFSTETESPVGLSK
Put plainly: ROR gamma coactivator peptide recruitment Alphascreen assay (RORγ-LBD binding to GRIP1 coactivator peptide). The class given is biochemical. The note with it: 5 nM human RORγ-LBD, 30 nM 7-β-hydroxycholesterol, 50 nM biotinylated GRIP1 coactivator peptide, overnight incubation at room temperature; read-out: result (pIC50, RORγ coactivator peptide recruitment Alphascreen assay) (converted). The method, boiled down:
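His/Flag-tagged human RORγ-LBD (aa 262-518, E. coli-expressed, 5 nM) with agonist 7-β-hydroxycholesterol (30 nM) and biotinylated GRIP1 LXXLL peptide (50 nM) in HEPES pH 7.4 buffer, 2.5% DMSO. Compound 1-in-2 dilutions; Alphascreen bead signal read after overnight incubation at room temperature; pIC50 calculated.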
Regarding `C[C@]1(C(=O)O)CC[C@H](n2ncc(C(=O)N(CCC3CC3)CC(=O)c3c(Cl)cncc3Cl)c2C(F)(F)F)CC1` [Example 776, trans-4-(4-((2-cyclopropylethyl)(2-(3,5-dichloro-4-pyridinyl)-2-oxoethyl)carbamoyl)-5-(trifluoromethyl)-1H-pyrazol-1-yl)-1-methylcyclohexanecarboxylic acid], the IC50 is 21.9 nM. For `Cc1cc(Cl)c(C(=O)CN(CCC2CC2)C(=O)c2cnn([C@H]3CC[C@](C)(C(=O)O)CC3)c2C(F)(F)F)c(Cl)c1` [Example 777, trans-4-(4-((2-cyclopropylethyl)(2-(2,6-dichloro-4-methylphenyl)-2-oxoethyl)carbamoyl)-5-(trifluoromethyl)-1H-pyrazol-1-yl)-1-methylcyclohexanecarboxylic acid], the IC50 is 4.27 nM. Regarding `Cc1cc(F)c(C(=O)CN(CC2(C)CCC2)C(=O)c2cnn([C@H]3CC[C@](C)(C(=O)O)CC3)c2C(F)(F)F)c(Cl)c1` [Example 778, trans-4-(4-((2-(2-chloro-6-fluoro-4-methylphenyl)-2-oxoethyl)((1-methylcyclobutyl)methyl)carbamoyl)-5-(trifluoromethyl)-1H-pyrazol-1-yl)-1-methylcyclohexanecarboxylic acid], the IC50 is 4.47 nM.

For the compound `Cc1cc(Cl)c(C(=O)CN(CCOC(C)(C)C)C(=O)c2cnn([C@H]3CC[C@](C)(C(=O)O)CC3)c2C(F)(F)F)c(Cl)n1` [Example 779, trans-4-(4-((2-(2,4-dichloro-6-methyl-3-pyridinyl)-2-oxoethyl)(2-((2-methyl-2-propanyl)oxy)ethyl)carbamoyl)-5-(trifluoromethyl)-1H-pyrazol-1-yl)-1-methylcyclohexanecarboxylic acid], the IC50 was 18.2 nM. To `C[C@H](C(=O)O)[C@H]1CC[C@H](n2ncc(C(=O)N(CC(=O)c3c(Cl)cncc3Cl)Cc3cc(F)cc(F)c3)c2C(F)(F)F)CC1` [Example 780, 2-(trans-4-(4-((2-(3,5-dichloro-4-pyridinyl)-2-oxoethyl)(3,5-difluorobenzyl)carbamoyl)-5-(trifluoromethyl)-1H-pyrazol-1-yl)cyclohexyl)propanoic acid] belongs 7.59 nM; to `C[C@@H]1C[C@@H](n2ncc(C(=O)N(CC(=O)c3c(Cl)cccc3Cl)CC3(C)CCC3)c2C(F)(F)F)CC[C@@H]1C(=O)O` [Example 781, (1S,2R,4S)-4-(4-((2-(2,6-dichlorophenyl)-2-oxoethyl)((1-methylcyclobutyl)methyl)carbamoyl)-5-(trifluoromethyl)-1H-pyrazol-1-yl)-2-methylcyclohexanecarboxylic acid], 1.55 nM; to `C[C@@H]1C[C@@H](n2ncc(C(=O)N(CC(=O)c3c(Cl)cncc3Cl)CC3(C)CCC3)c2C(F)(F)F)CC[C@@H]1C(=O)O` [Example 782, (1S,2R,4S)-4-(4-((2-(3,5-dichloro-4-pyridinyl)-2-oxoethyl)((1-methylcyclobutyl)methyl)carbamoyl)-5-(trifluoromethyl)-1H-pyrazol-1-yl)-2-methylcyclohexanecarboxylic acid], 3.98 nM. Regarding `Cc1cc(Cl)c(C(=O)CN(C[C@@H]2CCC(C)(C)O2)C(=O)c2cnn([C@H]3CC[C@](C)(C(=O)O)CC3)c2C(F)(F)F)c(Cl)c1` [Example 783, trans-4-(4-((2-(2,6-dichloro-4-methylphenyl)-2-oxoethyl)(((2S)-5,5-dimethyltetrahydro-2-furanyl)methyl)carbamoyl)-5-(trifluoromethyl)-1H-pyrazol-1-yl)-1-methylcyclohexanecarboxylic acid], the IC50 was 3.89 nM. To `C[C@H](C(=O)O)[C@H]1CC[C@@H](n2ncc(C(=O)N(CC(=O)c3c(Cl)cncc3Cl)Cc3cc(F)cc(F)c3)c2C(F)(F)F)CC1` [Example 786, 2-(cis-4-(4-((2-(3,5-dichloro-4-pyridinyl)-2-oxoethyl)(3,5-difluorobenzyl)carbamoyl)-5-(trifluoromethyl)-1H-pyrazol-1-yl)cyclohexyl)propanoic acid] belongs 34.7 nM; to `C[C@@H]1C[C@@H](n2ncc(C(=O)N(CC(=O)c3c(Cl)cccc3Cl)[C@H]3C[C@@H]4[C@H](C3)C4(C)C)c2C(F)(F)F)CC[C@@H]1C(=O)O` [Example 787, (1S,2R,4S)-4-(4-((2-(2,6-dichlorophenyl)-2-oxoethyl)((1R,3r,5S)-6,6-dimethylbicyclo[3.1.0]hex-3-yl)carbamoyl)-5-(trifluoromethyl)-1H-pyrazol-1-yl)-2-methylcyclohexanecarboxylic acid], 2.09 nM; to `C[C@@H]1C[C@@H](n2ncc(C(=O)N(CC(=O)c3c(Cl)cncc3Cl)CC3(C)CC3)c2C(F)(F)F)CC[C@@H]1C(=O)O` [Example 788, (1S,2R,4S)-4-(4-((2-(3,5-dichloro-4-pyridinyl)-2-oxoethyl)((1-methylcyclopropyl)methyl)carbamoyl)-5-(trifluoromethyl)-1H-pyrazol-1-yl)-2-methylcyclohexanecarboxylic acid], 17.4 nM. As to `C[C@]1(CC(=O)O)CC[C@H](n2ncc(C(=O)N(CC(=O)c3c(Cl)cncc3Cl)Cc3cc(F)cc(F)c3)c2C(F)(F)F)CC1` [Example 789, (trans-4-(4-((2-(3,5-dichloro-4-pyridinyl)-2-oxoethyl)(3,5-difluorobenzyl)carbamoyl)-5-(trifluoromethyl)-1H-pyrazol-1-yl)-1-methylcyclohexyl)acetic acid], the IC50 was 2.09 nM.

`C[C@]1(CC(=O)O)CC[C@@H](n2ncc(C(=O)N(CC(=O)c3c(Cl)cncc3Cl)Cc3cc(F)cc(F)c3)c2C(F)(F)F)CC1` [Example 790, (cis-4-(4-((2-(3,5-dichloro-4-pyridinyl)-2-oxoethyl)(3,5-difluorobenzyl)carbamoyl)-5-(trifluoromethyl)-1H-pyrazol-1-yl)-1-methylcyclohexyl)acetic acid]: the IC50 was 34.7 nM. To `CC(C)(C)CN(CC(=O)c1c(Cl)cncc1Cl)C(=O)c1cnn([C@H]2CC[C@](C)(CC(=O)O)CC2)c1C(F)(F)F` [Example 791, (trans-4-(4-((2-(3,5-dichloro-4-pyridinyl)-2-oxoethyl)(2,2-dimethylpropyl)carbamoyl)-5-(trifluoromethyl)-1H-pyrazol-1-yl)-1-methylcyclohexyl)acetic acid] belongs 5.25 nM; to `CC(C)(C)CN(CC(=O)c1c(Cl)cncc1Cl)C(=O)c1cnn([C@H]2CC[C@@](C)(CC(=O)O)CC2)c1C(F)(F)F` [Example 792, (cis-4-(4-((2-(3,5-dichloro-4-pyridinyl)-2-oxoethyl)(2,2-dimethylpropyl)carbamoyl)-5-(trifluoromethyl)-1H-pyrazol-1-yl)-1-methylcyclohexyl)acetic acid], 102 nM. As for `C[C@@H]1C[C@H](n2ncc(C(=O)N(CC(=O)c3c(Cl)cncc3Cl)CC(C)(C)C)c2C(F)(F)F)CC[C@H]1C(=O)O` [Example 793, (1R,2R,4R)-4-(4-((2-(3,5-dichloro-4-pyridinyl)-2-oxoethyl)(2,2-dimethylpropyl)carbamoyl)-5-(trifluoromethyl)-1H-pyrazol-1-yl)-2-methylcyclohexanecarboxylic acid], the IC50 was 25.1 nM.
